Experimental data taken from patent US11807835B2, “Detergent compositions containing a stabilized enzyme by phosphonates” (ECOLAB USA INC., priority 2016, dated 2023).

Legend:
Type in all cases: biochemical
amylase = assay: Amylase activity retention in detergent use solution (4000 ppm, 5 GPG water; ethylidene substrate EPS, HEPES buffer pH 8.0)
Method in brief: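 Detergent use solution at 4000 ppm in 5 GPG water held at 120° F.; aliquots taken up to 4 h, flash-frozen, then assayed with p-nitrophenyl valerate in TRIS pH 8.0 (lipase) or EPS substrate in HEPES pH 8.0 (amylase). Retention given as % activity relative to t=0.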

[1] = test system: enzyme (protease, amylase, lipase); assay: Overall effects of phosphonates on enzyme activity (Table 3); conditions: overall effect of the phosphonate on enzyme activity in the detergent use solution
Method in brief: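 Protease, amylase and lipase activity in detergent use solutions with varied phosphonate levels, 4000 ppm in 5 GPG water at 120° F., sampled up to 4 h and frozen at −80° C. before assay. Activity given as % retention relative to t=0 (100%).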

lipase = assay: Lipase activity retention in detergent use solution (4000 ppm, 5 GPG water; p-nitrophenyl valerate, TRIS buffer pH 8.0); conditions: Table 6E, phosphonate 0.3 wt-%, room temperature
Method in brief: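 Lipase stability was measured in a detergent use solution under conditions mimicking presoak or manual warewash, with stirring in a water bath. Aliquots were taken over time and flash-frozen. Thawed samples were diluted in TRIS buffer at pH 8.0 and assayed with p-nitrophenyl valerate as substrate on a plate reader. Activity is reported as % retained relative to the time=0 sample.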

## CC(O)(P(=O)(O)O)P(=O)(O)O [HEDP, 1-hydroxy ethylidene-1,1-diphosphonic acid]
amylase; All Ash formula, phosphonate 0.3 wt-%, use solution at 120° F., time 0 min
  Relative Amylase Enzyme Activity: 92.90%
amylase; All Ash formula, phosphonate 0.3 wt-%, use solution at 120° F., time 5 min
  Relative Amylase Enzyme Activity: 100.00%
amylase; All Ash formula, phosphonate 0.3 wt-%, use solution at 120° F., time 10 min
  Relative Amylase Enzyme Activity: 97.04%
amylase; All Ash formula, phosphonate 0.3 wt-%, use solution at 120° F., time 20 min
  Relative Amylase Enzyme Activity: 87.85%
amylase; All Ash formula, phosphonate 0.3 wt-%, use solution at 120° F., time 40 min
  Relative Amylase Enzyme Activity: 70.85%
amylase; All Ash formula, phosphonate 0.3 wt-%, use solution at 120° F., time 60 min
  Relative Amylase Enzyme Activity: 55.60%
amylase; All Ash formula, phosphonate 0.3 wt-%, use solution at 120° F., time 90 min
  Relative Amylase Enzyme Activity: 63.30%
amylase; All Ash formula, phosphonate 0.3 wt-%, use solution at 120° F., time 120 min
  Relative Amylase Enzyme Activity: 58.18%
amylase; All Ash formula, phosphonate 0.3 wt-%, use solution at 120° F., time 150 min
  Relative Amylase Enzyme Activity: 54.50%
amylase; All Ash formula, phosphonate 0.3 wt-%, use solution at 120° F., time 180 min
  Relative Amylase Enzyme Activity: 45.78%
amylase; All Ash formula, phosphonate 0.3 wt-%, use solution at 120° F., time 210 min
  Relative Amylase Enzyme Activity: 44.79%
amylase; All Ash formula, phosphonate 0.3 wt-%, use solution at 120° F., time 240 min
  Relative Amylase Enzyme Activity: 41.67%
amylase; base formula, phosphonate 0.3 wt-%, use solution at 120° F., time 0 min
  Relative Amylase Enzyme Activity: 100.00%
amylase; base formula, phosphonate 0.3 wt-%, use solution at 120° F., time 5 min
  Relative Amylase Enzyme Activity: 81.99%
amylase; base formula, phosphonate 0.3 wt-%, use solution at 120° F., time 10 min
  Relative Amylase Enzyme Activity: 90.32%
amylase; base formula, phosphonate 0.3 wt-%, use solution at 120° F., time 20 min
  Relative Amylase Enzyme Activity: 95.23%
amylase; base formula, phosphonate 0.3 wt-%, use solution at 120° F., time 40 min
  Relative Amylase Enzyme Activity: 84.92%
amylase; base formula, phosphonate 0.3 wt-%, use solution at 120° F., time 60 min
  Relative Amylase Enzyme Activity: 72.27%
amylase; base formula, phosphonate 0.3 wt-%, use solution at 120° F., time 90 min
  Relative Amylase Enzyme Activity: 79.95%
amylase; base formula, phosphonate 0.3 wt-%, use solution at 120° F., time 120 min
  Relative Amylase Enzyme Activity: 84.46%
amylase; base formula, phosphonate 0.3 wt-%, use solution at 120° F., time 150 min
  Relative Amylase Enzyme Activity: 79.54%
amylase; base formula, phosphonate 0.3 wt-%, use solution at 120° F., time 180 min
  Relative Amylase Enzyme Activity: 84.18%
amylase; base formula, phosphonate 0.3 wt-%, use solution at 120° F., time 210 min
  Relative Amylase Enzyme Activity: 69.49%
amylase; base formula, phosphonate 0.3 wt-%, use solution at 120° F., time 240 min
  Relative Amylase Enzyme Activity: 88.63%
amylase; base formula, phosphonate 0.6 wt-%, use solution at 120º F., time 0 min
  Relative Amylase Enzyme Activity: 100.00%
amylase; base formula, phosphonate 0.6 wt-%, use solution at 120º F., time 5 min
  Relative Amylase Enzyme Activity: 96.09%
amylase; base formula, phosphonate 0.6 wt-%, use solution at 120º F., time 10 min
  Relative Amylase Enzyme Activity: 99.71%
amylase; base formula, phosphonate 0.6 wt-%, use solution at 120º F., time 20 min
  Relative Amylase Enzyme Activity: 91.20%
amylase; base formula, phosphonate 0.6 wt-%, use solution at 120º F., time 40 min
  Relative Amylase Enzyme Activity: 94.89%
amylase; base formula, phosphonate 0.6 wt-%, use solution at 120º F., time 60 min
  Relative Amylase Enzyme Activity: 97.28%
amylase; base formula, phosphonate 0.6 wt-%, use solution at 120º F., time 90 min
  Relative Amylase Enzyme Activity: 94.67%
amylase; base formula, phosphonate 0.6 wt-%, use solution at 120º F., time 120 min
  Relative Amylase Enzyme Activity: 88.12%
amylase; base formula, phosphonate 0.6 wt-%, use solution at 120º F., time 150 min
  Relative Amylase Enzyme Activity: 90.33%
amylase; base formula, phosphonate 0.6 wt-%, use solution at 120º F., time 180 min
  Relative Amylase Enzyme Activity: 86.96%
amylase; base formula, phosphonate 0.6 wt-%, use solution at 120º F., time 210 min
  Relative Amylase Enzyme Activity: 96.92%
amylase; base formula, phosphonate 0.6 wt-%, use solution at 120º F., time 240 min
  Relative Amylase Enzyme Activity: 92.50%
amylase; base formula, phosphonate at 0.1% elemental phosphorus level, use solution at 120º F., time 5 min
  Relative Amylase Enzyme Activity: 100.00%
amylase; base formula, phosphonate at 0.1% elemental phosphorus level, use solution at 120º F., time 10 min
  Relative Amylase Enzyme Activity: 97.58%
amylase; base formula, phosphonate at 0.1% elemental phosphorus level, use solution at 120º F., time 20 min
  Relative Amylase Enzyme Activity: 90.30%
amylase; base formula, phosphonate at 0.1% elemental phosphorus level, use solution at 120º F., time 40 min
  Relative Amylase Enzyme Activity: 81.48%
amylase; base formula, phosphonate at 0.1% elemental phosphorus level, use solution at 120º F., time 60 min
  Relative Amylase Enzyme Activity: 83.84%
amylase; base formula, phosphonate at 0.1% elemental phosphorus level, use solution at 120º F., time 90 min
  Relative Amylase Enzyme Activity: 85.26%
amylase; base formula, phosphonate at 0.1% elemental phosphorus level, use solution at 120º F., time 120 min
  Relative Amylase Enzyme Activity: 82.59%
amylase; base formula, phosphonate at 0.1% elemental phosphorus level, use solution at 120º F., time 180 min
  Relative Amylase Enzyme Activity: 75.47%
amylase; base formula, phosphonate at 0.1% elemental phosphorus level, use solution at 120º F., time 210 min
  Relative Amylase Enzyme Activity: 85.77%
amylase; base formula, phosphonate at 0.1% elemental phosphorus level, use solution at 120º F., time 240 min
  Relative Amylase Enzyme Activity: 81.23%
[1]
  Stability (effects on enzyme activity): No
lipase; time 0 min
  Relative Lipase Enzyme Activity in a Use Solution: 100.00%
lipase; time 5 min
  Relative Lipase Enzyme Activity in a Use Solution: 101.22%
lipase; time 10 min
  Relative Lipase Enzyme Activity in a Use Solution: 102.97%
lipase; time 20 min
  Relative Lipase Enzyme Activity in a Use Solution: 98.65%
lipase; time 40 min
  Relative Lipase Enzyme Activity in a Use Solution: 81.12%
lipase; time 60 min
  Relative Lipase Enzyme Activity in a Use Solution: 89.82%
